Experimental data as given in patent US11453647B2, “Benzimidazole derivatives as adenosine receptor antagonists” (Merck Patent GmbH, priority 2017, dated 2022).

Assays:
[1] = system: mouse Pan T cells; experiment: mouse Pan T cell IFN-γ rescue from A2A agonist CGS-21680 (ELISA, 48 h); format: cell-based; conditions: for IC50: Mus musculus, T-cell
Description: (§1) Adenosine (Ado) in tumor microenvironment can inhibit T cell activity by signaling through A2A receptors and suppress cytokine secretion by T cells. […] Potential A2A antagonists or A2A/A2B dual antagonists can rescue T cells from this inhibition. Herein, we describe the in vitro system we established using Pan T cells from mouse spleens to screen potential A2A antagonists or A2A/A2B dual antagonists for their activity. The method described involves the use of CD3/CD28 pre-coated beads to stimulate Pan T cells purified from mouse splenocytes, combined with the addition of A2A agonist along with potential A2A or A2A/A2B dual antagonists to evaluate potentiation of T cell cytokine production.
(§2) Briefly, mouse Pan T cells are purified from spleens of BALB/c mice using Pan T cell isolation kit Mouse II (MACS Miltenyi biotech Cat # Order no. 130-095-130) according to manufacturer's protocol. The purified T cells are seeded in Nunc™ 96-Well Polystyrene Round Bottom Microwell Plates in RPMI medium with 10% heat inactivated fetal bovine serum. The cells are rested at 37° C. for 1 h before activating with CD3/CD28 pre-coated beads (Dynabeads™ Mouse T-Activator CD3/CD28; Cat #11456D). After 30 min the cells are treated with varying doses of test antagonist(s). […] After 24 h incubation IL-2 levels in the supernatants and after 48 h incubation IFN-γ levels in the supernatants are measured by ELISAs according to manufacturer's protocol (R&D systems Cat # DY402 (IL-2); DY485 (IFN-γ)). Once the concentrations are calculated, the difference of cytokine concentration of DMSO control and agonist alone control is calculated (called A) and the percentage of rescue by each concentration of antagonist is calculated by using Microsoft Excel. These percentages of cytokine rescue in a dose dependent manner of antagonist is plotted in GraphPad Prism software and IC50 is calculated.

[2] = system: mouse Pan T cells; experiment: mouse Pan T cell IL-2 rescue from A2A agonist CGS-21680 (ELISA, 24 h); format: cell-based; conditions: for IC50: Mus musculus, T-cell
Description: as §1, §2

[3] = pharmacokinetic properties in mouse after single intravenous and oral administration; format: in vivo; conditions: PK data in mouse; for Feces iv: @0.2 (dose, unit not given); for clearance / half-life / Cmax / Vd: female, plasma, 0.2 mg/kg; for Cmax: dose-normalized to 1 mg/kg; for Vd: read-out: Vss
Description: The objective of the study was to obtain information on the pharmacokinetic properties of the compounds of the present invention in female Wistar rats/mice following single intravenous and oral administration.
Female Wistar rats/mice (n=6) received either a single intravenous (bolus) injection or an oral administration (by gavage) of the tested compound.
The concentrations of the compounds in plasma, feces were quantified using an UPLC method with tandem mass spectrometric detection (LC-MS/MS) previously developed at the ‘Institute of Drug Metabolism and Pharmacokinetics’. The LC-MS/MS system consisted of a Waters Acquity UPLC coupled to an AB Sciex mass spectrometer API 5500 Q-trap. […] The detection of the compounds was performed using multiple reaction monitoring in the positive ionization mode. Plasma samples were spiked with internal standard (20 μl) and the analyte was extracted from the matrix using tertiary-butyl methyl ether (tBME). The organic phase was evaporated to dryness under a stream of nitrogen. The residue was dissolved in acetonitrile/0.1% formic acid for LC-MS/MS analysis. Feces samples were homogenized with 4-times their volume of an ethanol/water mixture (4:1, v/v). Aliquots of the aqueous-ethanolic extracts were spiked with internal standard, diluted with acetonitrile/water (1:1, v/v) and directly injected into the LC-MS/MS system.
Pharmacokinetic parameters Cmax and tmax were taken from the observed data. […] AUC values were calculated by non-compartmental analysis using the linear up/log down method. Numerical data for mean plasma concentrations and derived pharmacokinetic parameters were rounded to 3 significant digits for presentation.

[4] = target: T1, A2B receptors (Homo sapiens, UniProt P29275); experiment: functional cAMP (HTRF) assay, recombinant HEK293 cells expressing human A2B receptor, agonist NECA; format: cell-based; design: expressed in transfected cells; host or cells: HEK293
T1 sequence (P29275 1-332): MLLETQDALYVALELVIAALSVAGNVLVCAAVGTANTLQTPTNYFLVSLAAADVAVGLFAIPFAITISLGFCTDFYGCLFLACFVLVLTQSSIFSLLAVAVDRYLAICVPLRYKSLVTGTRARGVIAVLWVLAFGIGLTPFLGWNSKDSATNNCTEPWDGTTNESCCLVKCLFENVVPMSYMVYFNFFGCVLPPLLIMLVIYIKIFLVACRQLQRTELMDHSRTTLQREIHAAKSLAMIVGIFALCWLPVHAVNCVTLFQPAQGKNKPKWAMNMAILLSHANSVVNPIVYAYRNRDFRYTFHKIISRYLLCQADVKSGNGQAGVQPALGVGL

[5] = target: T2, human A2A receptor (Homo sapiens, UniProt P29274); experiment: functional cAMP (HTRF) assay, recombinant HEK293 cells expressing human A2A receptor, agonist NECA; format: cell-based
T2 construct: expressed in transfected cells; host or cells: HEK293

[6] = target: T3, human A3 receptor (Homo sapiens, UniProt P0DMS8); experiment: functional cAMP (HTRF) assay, recombinant CHO cells expressing human A3 receptor, forskolin, agonist IB-MECA; format: cell-based
T3 construct: expressed in transfected cells; host or cells: CHO
T3 sequence (P0DMS8 1-318): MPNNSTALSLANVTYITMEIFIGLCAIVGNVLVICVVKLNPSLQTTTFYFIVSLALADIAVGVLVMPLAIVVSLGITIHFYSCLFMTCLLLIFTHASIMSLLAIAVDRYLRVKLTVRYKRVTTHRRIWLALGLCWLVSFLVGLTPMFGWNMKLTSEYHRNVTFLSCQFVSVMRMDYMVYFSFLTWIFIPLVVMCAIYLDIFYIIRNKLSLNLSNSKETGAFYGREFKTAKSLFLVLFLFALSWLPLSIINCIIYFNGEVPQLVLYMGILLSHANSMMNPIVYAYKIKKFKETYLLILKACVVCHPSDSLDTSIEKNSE
Method in brief: (§3)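 Recombinant CHO cells expressing A1 or A3 receptor (Gi-coupled) were stimulated with forskolin together with test compound and agonist (CPA for A1, IB-MECA for A3), incubated 30 min, then cellular cAMP was read by HTRF. Data were normalized to inhibitor control and DMSO neutral control, then curve-fitted.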

[7] = target: T4, human A1 receptor (Homo sapiens, UniProt P30542); experiment: functional cAMP (HTRF) assay, recombinant CHO cells expressing human A1 receptor, forskolin, agonist CPA; format: cell-based
T4 construct: expressed in transfected cells; host or cells: CHO
T4 sequence (P30542 1-326): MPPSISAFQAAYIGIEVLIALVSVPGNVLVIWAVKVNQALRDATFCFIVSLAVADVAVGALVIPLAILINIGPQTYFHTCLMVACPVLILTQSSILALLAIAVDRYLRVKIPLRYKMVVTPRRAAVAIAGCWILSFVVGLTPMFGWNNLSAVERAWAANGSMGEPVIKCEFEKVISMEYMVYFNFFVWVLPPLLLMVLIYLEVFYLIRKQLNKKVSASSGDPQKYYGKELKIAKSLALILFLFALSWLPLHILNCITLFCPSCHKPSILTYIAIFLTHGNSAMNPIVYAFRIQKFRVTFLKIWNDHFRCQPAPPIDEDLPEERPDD
Method in brief: as §3

[8] = IC50 of cytokine rescue, CGS-21680 1 μM, CD3/CD28 beads

T2 sequence (P29274 whole entry): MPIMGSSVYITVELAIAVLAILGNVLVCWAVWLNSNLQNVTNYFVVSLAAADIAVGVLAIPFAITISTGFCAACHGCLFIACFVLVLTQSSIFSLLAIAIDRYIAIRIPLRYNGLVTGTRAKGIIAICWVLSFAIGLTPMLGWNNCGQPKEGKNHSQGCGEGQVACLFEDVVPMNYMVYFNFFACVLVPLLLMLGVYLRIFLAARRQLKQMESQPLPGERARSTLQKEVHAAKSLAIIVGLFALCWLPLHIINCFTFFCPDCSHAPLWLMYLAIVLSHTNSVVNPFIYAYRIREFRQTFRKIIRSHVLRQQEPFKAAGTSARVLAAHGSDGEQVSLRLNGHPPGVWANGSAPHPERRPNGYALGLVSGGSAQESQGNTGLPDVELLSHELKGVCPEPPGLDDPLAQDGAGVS

| Feces iv [3] | IC50 [4] [nM] | IC50 [1] [nM] | IC50 [2] [nM] | IC50 [5] [nM] | IC50 [6] [nM] | IC50 [7] [nM] | clearance [3] [mL/min/kg] | half-life [3] [min] | Cmax [3] [ng/mL] | Vd [3] [L/kg] | Structure (SMILES) | Mouse IFN-γ [1, 8] | Mouse T-Cell IL-2 [2, 8] |
| --- | --- | --- | --- | --- | --- | --- | --- | --- | --- | --- | --- | --- | --- |
| 23@0.2% |  |  |  |  |  |  |  |  |  |  | COc1ccc(N2CCOCC2)c2sc(NC(=O)N3CCC(C)(O)CC3)nc12 [Tozadenant, reference compound] | NA (<50% rescue) | NA (<50% rescue) |
|  | < 100 | 75 | 44 | < 10 | > 1000 | > 1000 |  |  |  |  | CCNCc1ccc(C(=O)Nc2nc3c(-c4ccccc4)ccc(OC)c3[nH]2)cc1 [compound 11, 4-Ethylaminomethyl-N-(7-methoxy-4-phenyl-1H-benzoimidazol-2-yl)-benzamide] |  |  |
|  | < 10 |  | 1110 | < 10 | < 100 | < 1000 |  |  |  |  | COc1ccc(-c2ccccc2)c2nc(NC(=O)c3ccc(Cn4ccnc4)cc3)[nH]c12 [compound 15, 4-Imidazol-1-ylmethyl-N-(7-methoxy-4-phenyl-1H-benzoimidazol-2-yl)-benzamide] |  |  |
|  |  | 220 | 120 |  |  |  |  |  |  |  | COc1ccc(-c2cnn(C)c2)c2nc(NC(=O)N3CCC(C)(CO)CC3)[nH]c12 [compound 35, 4-Hydroxymethyl-4-methyl-piperidine-1-carboxylic acid [7-methoxy-4-(1-methyl-1H-pyrazol-4-yl)-1H-benzoimidazol-2-yl]-amide] |  |  |
|  |  | 800 |  |  |  |  |  |  |  |  | COc1ccc(-c2cnn(C)c2)c2nc(NC(=O)N3CCC4(CCCOC4)C3)[nH]c12 (centres unmarked) [compound 67, N-[7-methoxy-4-(1-methyl-1H-pyrazol-4-yl)-1H-1,3-benzodiazol-2-yl]-7-oxa-2-azaspiro[4.5]decane-2-carboxamide] |  |  |
|  | < 100 | 40 | 40 | < 10 | < 1000 | > 1000 |  |  |  |  | COc1ccc(-c2cnn(C)c2)c2nc(NC(=O)c3ccc(Cn4ccnc4)cc3)[nH]c12 [compound 71, 4-[(1H-imidazol-1-yl)methyl]-N-[7-methoxy-4-(1-methyl-1H-pyrazol-4-yl)-1H-1,3-benzodiazol-2-yl]benzamide] |  |  |
| 26@0.2% | < 1000 | 500 | 1000 | < 10 | > 1000 | > 1000 | 31.7 | 33.4 | 892 | 1.17 | C#CCC1(O)CCN(C(=O)Nc2nc3c(-c4cnn(C)c4)ccc(OC)c3[nH]2)CC1 [compound 92, 4-hydroxy-N-[7-methoxy-4-(1-methyl-1H-pyrazol-4-yl)-1H-1,3-benzodiazol-2-yl]-4-(prop-2-yn-1-yl)piperidine-1-carboxamide] |  |  |
|  | < 1000 | 1000 |  | < 10 | < 1000 | > 1000 |  |  |  |  | COc1ccc(-c2cnn(C)c2)c2nc(NC(=O)c3ccc(OC(F)(F)F)cc3)[nH]c12 [compound 94, N-[7-methoxy-4-(1-methyl-1H-pyrazol-4-yl)-1H-1,3-benzodiazol-2-yl]-4-(trifluoromethoxy)benzamide] |  |  |
| 29@0.2% | < 100 |  |  | < 10 | > 1000 | > 1000 | 12.5 | 58 | 1050 | 1.01 | COc1ccc(C2CCOCC2)c2nc(NC(=O)c3ccc(Cn4ccnc4)cc3)[nH]c12 [compound 97, 4-[(1H-imidazol-1-yl)methyl]-N-[7-methoxy-4-(oxan-4-yl)-1H-1,3-benzodiazol-2-yl]benzamide] |  |  |
| 34@0.2% | < 1000 |  |  | < 10 | < 1000 | > 1000 | 31.7 | 37.3 | 718 | 1.54 | COc1ccc(-c2cnn(C)c2)c2nc(NC(=O)c3ccnc(N4CC[C@@](C)(O)C4)c3)[nH]c12 [compound 107, 2-[(3R)-3-hydroxy-3-methylpyrrolidin-1-yl]-N-[7-methoxy-4-(1-methyl-1H-pyrazol-4-yl)-1H-1,3-benzodiazol-2-yl]pyridine-4-carboxamide] |  |  |
| 2.5@0.2% | < 1000 |  |  | < 10 | > 1000 | > 1000 | 12.7 | 40.1 | 2640 | 0.402 | COc1ccc(C2CCOCC2)c2nc(NC(=O)c3ccc(C(=O)N(C)C)cc3)[nH]c12 [compound 133, N4-[7-methoxy-4-(oxan-4-yl)-1H-1,3-benzodiazol-2-yl]-N1,N1-dimethylbenzene-1,4-dicarboxamide] |  |  |
| 5.6@0.2% | > 1000 |  |  | < 10 | > 1000 | > 1000 | 5.55 | 69 | 2100 | 0.522 | COc1ccc(N2CCOCC2)c2nc(NC(=O)c3cnn(C)c3)[nH]c12 [compound 136, N-[7-methoxy-4-(morpholin-4-yl)-1H-1,3-benzodiazol-2-yl]-1-methyl-1H-pyrazole-4-carboxamide] |  |  |
|  | < 1000 |  |  | < 10 | > 1000 | > 1000 | 28.5 | 32.3 | 1.9 | 1.06 | COc1ccc(C2CCOCC2)c2nc(NC(=O)c3ccc(CN4CCCC4=O)cc3)[nH]c12 [compound 138, N-[7-methoxy-4-(oxan-4-yl)-1H-1,3-benzodiazol-2-yl]-4-[(2-oxopyrrolidin-1-yl)methyl]benzamide] |  |  |
